{
  "source": "ChEMBL document CHEMBL2073753",
  "about": "“Steroid and bile acid conjugates are substrates of human multidrug-resistance protein (MRP) 4 (ATP-binding cassette C4)” (Biochem J, 2003)",
  "key": {"[1]": {"target": "T1, ATP-binding cassette sub-family C member 4 (Homo sapiens, UniProt O15439)", "T1 sequence (O15439 whole entry)": "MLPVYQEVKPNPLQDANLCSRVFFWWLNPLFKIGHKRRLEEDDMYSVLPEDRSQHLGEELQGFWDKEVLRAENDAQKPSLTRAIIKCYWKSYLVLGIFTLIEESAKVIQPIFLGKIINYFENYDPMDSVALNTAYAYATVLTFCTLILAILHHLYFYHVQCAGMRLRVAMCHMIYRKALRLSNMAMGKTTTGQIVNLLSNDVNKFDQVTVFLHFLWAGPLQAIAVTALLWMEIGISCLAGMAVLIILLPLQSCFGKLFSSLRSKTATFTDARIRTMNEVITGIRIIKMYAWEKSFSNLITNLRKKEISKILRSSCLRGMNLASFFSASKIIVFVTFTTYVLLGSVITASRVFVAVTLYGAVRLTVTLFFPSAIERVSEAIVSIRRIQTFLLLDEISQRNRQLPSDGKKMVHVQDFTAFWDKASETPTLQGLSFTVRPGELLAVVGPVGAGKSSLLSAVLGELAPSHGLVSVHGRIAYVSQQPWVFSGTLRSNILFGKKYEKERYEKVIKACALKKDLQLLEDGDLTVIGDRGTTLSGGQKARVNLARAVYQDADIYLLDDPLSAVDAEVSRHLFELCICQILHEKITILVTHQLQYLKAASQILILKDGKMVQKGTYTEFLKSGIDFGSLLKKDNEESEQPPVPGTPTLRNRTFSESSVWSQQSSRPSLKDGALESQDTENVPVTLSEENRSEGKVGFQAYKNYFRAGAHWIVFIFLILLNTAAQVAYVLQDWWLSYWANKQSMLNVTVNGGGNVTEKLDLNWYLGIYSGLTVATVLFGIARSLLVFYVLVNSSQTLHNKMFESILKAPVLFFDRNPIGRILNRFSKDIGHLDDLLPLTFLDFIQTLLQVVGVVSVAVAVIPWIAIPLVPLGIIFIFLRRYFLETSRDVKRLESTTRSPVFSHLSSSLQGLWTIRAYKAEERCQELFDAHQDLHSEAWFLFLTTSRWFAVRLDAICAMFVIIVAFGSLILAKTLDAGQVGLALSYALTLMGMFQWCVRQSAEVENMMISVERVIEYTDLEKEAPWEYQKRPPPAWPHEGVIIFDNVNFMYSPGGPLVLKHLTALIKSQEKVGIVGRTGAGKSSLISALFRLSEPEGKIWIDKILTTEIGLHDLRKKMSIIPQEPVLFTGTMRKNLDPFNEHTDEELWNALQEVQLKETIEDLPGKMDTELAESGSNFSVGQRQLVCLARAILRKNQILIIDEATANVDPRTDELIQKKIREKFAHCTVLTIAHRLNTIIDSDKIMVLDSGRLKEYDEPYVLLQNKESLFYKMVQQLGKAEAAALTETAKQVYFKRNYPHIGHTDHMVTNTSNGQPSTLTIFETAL", "test": "TP_TRANSPORTER: inhibition of E217betaG uptake in membrane vesicles from MRP4-expressing HEK-293 cells", "type": "functional, cell membranes, HEK293, Membrane vesicle"}, "[2]": {"target": "T1, ATP-binding cassette sub-family C member 4", "test": "TP_TRANSPORTER: inhibition of DHEAS in membrane vesicles from MRP4-expressing Sf9 cells", "type": "functional, cell membranes, Membrane vesicle"}, "[3]": {"target": "T1, ATP-binding cassette sub-family C member 4", "test": "TP_TRANSPORTER: inhibition of E217betaG uptake in membrane vesicles from MRP4-expressing Sf9 cells", "type": "functional, cell membranes, Membrane vesicle"}},
  "data": [
    {"smiles": "C[C@H](CCC(=O)NCC(=O)O)[C@H]1CC[C@H]2[C@@H]3CC[C@@H]4C[C@H](OS(=O)(=O)O)CC[C@]4(C)[C@H]3CC[C@]12C", "values": [
      {"measurement": "IC50", "setting": "[1]", "result": 10, "unit": "µM"}
    ]},
    {"smiles": "C[C@H](CCC(=O)NCC(=O)O)[C@H]1CC[C@H]2[C@@H]3[C@H](O)C[C@@H]4C[C@H](O)CC[C@]4(C)[C@H]3C[C@H](O)[C@]12C", "note": "[GLYCOCHOLIC ACID]", "values": [
      {"measurement": "IC50", "setting": "[1]", "result": 400, "unit": "µM"}
    ]},
    {"smiles": "C[C@]12CC[C@@H]3c4ccc(OS(=O)(=O)O)cc4CC[C@H]3[C@@H]1CC[C@@H]2OS(=O)(=O)O", "note": "[ESTRADIOL DISULFATE]", "values": [
      {"measurement": "IC50", "setting": "[2]", "result": 0.2, "unit": "µM"},
      {"measurement": "IC50", "setting": "[3]", "result": 2, "unit": "µM"}
    ]},
    {"smiles": "C[C@H](CCC(=O)O)[C@H]1CC[C@H]2[C@@H]3CC[C@@H]4C[C@H](OS(=O)(=O)O)CC[C@]4(C)[C@H]3CC[C@]12C", "values": [
      {"measurement": "IC50", "setting": "[1]", "result": 10, "unit": "µM"}
    ]},
    {"smiles": "C[C@]12CC[C@@H]3c4ccc(O)cc4CC[C@H]3[C@@H]1CC[C@@H]2O[C@@H]1O[C@H](C(=O)O)[C@@H](O)[C@H](O)[C@H]1O", "note": "[ESTRADIOL 17B GLUCURONIDE]", "values": [
      {"measurement": "IC50", "setting": "[2]", "result": 30, "unit": "µM"}
    ]},
    {"smiles": "C[C@]12CC[C@@H]3c4ccc(O[C@@H]5O[C@H](C(=O)O)[C@@H](O)[C@H](O)[C@H]5O)cc4CC[C@H]3[C@@H]1CC[C@@H]2O", "values": [
      {"measurement": "IC50", "setting": "[2]", "result": 80, "unit": "µM"},
      {"measurement": "IC50", "setting": "[3]", "result": 120, "unit": "µM"}
    ]},
    {"smiles": "C[C@H](CCC(=O)NCCS(=O)(=O)O)[C@H]1CC[C@H]2[C@@H]3CC[C@@H]4C[C@H](O)CC[C@]4(C)[C@H]3CC[C@]12C", "note": "[TAUROLITHOCHOLIC ACID]", "values": [
      {"measurement": "IC50", "setting": "[1]", "result": 20, "unit": "µM"}
    ]},
    {"smiles": "C[C@]12CC[C@@H]3c4ccc(OS(=O)(=O)O)cc4CC[C@H]3[C@@H]1CCC2=O", "note": "[ESTRONE SULFURIC ACID]", "values": [
      {"measurement": "IC50", "setting": "[2]", "result": 95, "unit": "µM"},
      {"measurement": "IC50", "setting": "[3]", "result": 45, "unit": "µM"}
    ]},
    {"smiles": "C[C@H](CCC(=O)NCCS(=O)(=O)O)[C@H]1CC[C@H]2[C@@H]3CC[C@@H]4C[C@H](O)CC[C@]4(C)[C@H]3C[C@H](O)[C@]12C", "note": "[TAURODEOXYCHOLIC ACID]", "values": [
      {"measurement": "IC50", "setting": "[1]", "result": 60, "unit": "µM"}
    ]},
    {"smiles": "C[C@H](CCC(=O)NCCS(=O)(=O)O)[C@H]1CC[C@H]2[C@@H]3[C@H](O)C[C@@H]4C[C@H](O)CC[C@]4(C)[C@H]3CC[C@]12C", "note": "[TAUROCHENODEOXYCHOLATE]", "values": [
      {"measurement": "IC50", "setting": "[1]", "result": 55, "unit": "µM"}
    ]},
    {"smiles": "C[C@]12CC[C@@H]3c4ccc(OS(=O)(=O)O)cc4CC[C@H]3[C@@H]1CC[C@H]2O", "values": [
      {"measurement": "IC50", "setting": "[2]", "result": 70, "unit": "µM"},
      {"measurement": "IC50", "setting": "[3]", "result": 50, "unit": "µM"}
    ]},
    {"smiles": "C[C@]12CC[C@H](O[C@@H]3O[C@H](C(=O)O)[C@@H](O)[C@H](O)[C@H]3O)CC1=CC[C@@H]1[C@@H]2CC[C@]2(C)C(=O)CC[C@@H]12", "values": [
      {"measurement": "IC50", "setting": "[2]", "result": 80, "unit": "µM"},
      {"measurement": "IC50", "setting": "[3]", "result": 80, "unit": "µM"}
    ]},
    {"smiles": "C[C@H](CCC(=O)NCCS(=O)(=O)O)C1CC[C@H]2[C@@H]3CC[C@@H]4C[C@H](OS(=O)(=O)O)CC[C@]4(C)[C@H]3CC[C@]12C", "note": "(stereo partly drawn)", "values": [
      {"measurement": "IC50", "setting": "[1]", "result": 10, "unit": "µM"}
    ]}
  ]
}
